Data reported in patent US9446039B2, “Aminoheteroaryl compounds as MTH1 inhibitors” (CEMM—FORSCHUNGSZENTRUM FÜR MOLEKULARE MEDIZIN GMBH, priority 2012, dated 2016).

What was measured:
Format in all cases: binding
[1] = target: SW480 colon carcinoma cells lysate proteins (Homo sapiens, UniProt P12814); details: PreyGene ACTN1
[2] = target: T1, SW480 colon carcinoma cells lysate proteins (Homo sapiens, UniProt P22234); details: PreyGene PAICS
T1 sequence (P22234 1-425): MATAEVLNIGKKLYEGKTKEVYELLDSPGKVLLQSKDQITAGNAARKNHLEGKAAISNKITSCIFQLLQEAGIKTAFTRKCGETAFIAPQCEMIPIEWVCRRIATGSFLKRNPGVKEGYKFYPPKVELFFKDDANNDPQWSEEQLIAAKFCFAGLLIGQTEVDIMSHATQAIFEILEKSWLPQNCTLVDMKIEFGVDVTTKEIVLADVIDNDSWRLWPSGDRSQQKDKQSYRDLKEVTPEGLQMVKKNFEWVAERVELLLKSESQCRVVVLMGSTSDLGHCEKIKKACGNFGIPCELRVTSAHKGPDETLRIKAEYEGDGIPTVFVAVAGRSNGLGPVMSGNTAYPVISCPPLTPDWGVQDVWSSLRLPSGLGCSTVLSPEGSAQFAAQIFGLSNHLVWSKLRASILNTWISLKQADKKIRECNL

[3] = target: T2, SW480 colon carcinoma cells lysate proteins (Homo sapiens, UniProt P26639); details: PreyGene TARS
T2 sequence (P26639 1-723): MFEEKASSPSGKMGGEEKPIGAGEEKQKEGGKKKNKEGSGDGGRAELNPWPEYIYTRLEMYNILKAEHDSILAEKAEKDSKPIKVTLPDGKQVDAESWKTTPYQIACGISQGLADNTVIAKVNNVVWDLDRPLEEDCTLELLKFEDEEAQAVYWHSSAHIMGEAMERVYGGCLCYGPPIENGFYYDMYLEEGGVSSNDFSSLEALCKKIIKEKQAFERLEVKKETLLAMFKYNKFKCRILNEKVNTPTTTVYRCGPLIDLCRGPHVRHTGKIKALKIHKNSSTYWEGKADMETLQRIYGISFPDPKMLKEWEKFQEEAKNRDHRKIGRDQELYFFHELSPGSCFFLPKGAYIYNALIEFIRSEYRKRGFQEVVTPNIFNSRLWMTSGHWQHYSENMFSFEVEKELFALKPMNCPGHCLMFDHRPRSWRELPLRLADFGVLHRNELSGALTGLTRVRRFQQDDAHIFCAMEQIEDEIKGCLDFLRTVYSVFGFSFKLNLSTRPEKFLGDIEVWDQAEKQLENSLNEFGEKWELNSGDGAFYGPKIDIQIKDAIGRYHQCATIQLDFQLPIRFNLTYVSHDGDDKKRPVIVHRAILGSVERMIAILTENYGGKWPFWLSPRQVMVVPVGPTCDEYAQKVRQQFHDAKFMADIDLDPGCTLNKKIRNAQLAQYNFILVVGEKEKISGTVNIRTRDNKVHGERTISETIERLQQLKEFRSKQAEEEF

[4] = target: T3, SW480 colon carcinoma cells lysate proteins (Homo sapiens, UniProt P31949); details: PreyGene S100A11
T3 sequence (P31949 1-105): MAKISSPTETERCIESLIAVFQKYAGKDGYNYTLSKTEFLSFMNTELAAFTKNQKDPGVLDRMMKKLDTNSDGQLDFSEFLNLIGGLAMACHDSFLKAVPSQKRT

[5] = target: T4, SW480 colon carcinoma cells lysate proteins (Homo sapiens, UniProt P55145); details: PreyGene MANF
T4 sequence (P55145 25-182): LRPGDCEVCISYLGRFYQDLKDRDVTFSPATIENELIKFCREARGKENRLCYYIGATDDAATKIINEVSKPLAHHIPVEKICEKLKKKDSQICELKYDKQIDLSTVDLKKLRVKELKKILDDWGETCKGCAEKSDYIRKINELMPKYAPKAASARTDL

[6] = target: T5, SW480 colon carcinoma cells lysate proteins (Homo sapiens, UniProt Q14019); details: PreyGene COTL1
T5 sequence (Q14019 1-142): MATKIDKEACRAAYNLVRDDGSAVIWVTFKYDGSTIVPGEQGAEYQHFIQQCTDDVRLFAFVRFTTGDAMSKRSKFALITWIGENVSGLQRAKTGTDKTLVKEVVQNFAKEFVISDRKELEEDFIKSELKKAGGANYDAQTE

[7] = target: SW480 colon carcinoma cells lysate proteins (Homo sapiens, UniProt Q14152); details: PreyGene EIF3A; SW480 cells
[8] = target: T6, SW480 colon carcinoma cells lysate proteins (Homo sapiens, UniProt Q14847); details: PreyGene LASP1; SW480 cells
T6 sequence (Q14847 1-261): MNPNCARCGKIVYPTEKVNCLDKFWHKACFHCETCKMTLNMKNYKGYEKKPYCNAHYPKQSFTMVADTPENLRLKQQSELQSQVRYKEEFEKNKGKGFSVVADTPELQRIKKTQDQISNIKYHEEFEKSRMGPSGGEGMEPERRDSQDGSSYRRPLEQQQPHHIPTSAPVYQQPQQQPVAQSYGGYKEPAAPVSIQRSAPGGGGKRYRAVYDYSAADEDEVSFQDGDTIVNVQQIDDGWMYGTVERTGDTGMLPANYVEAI

SW480 colon carcinoma cells lysate proteins (Homo sapiens, UniProt P12814), sequence (P12814 whole entry): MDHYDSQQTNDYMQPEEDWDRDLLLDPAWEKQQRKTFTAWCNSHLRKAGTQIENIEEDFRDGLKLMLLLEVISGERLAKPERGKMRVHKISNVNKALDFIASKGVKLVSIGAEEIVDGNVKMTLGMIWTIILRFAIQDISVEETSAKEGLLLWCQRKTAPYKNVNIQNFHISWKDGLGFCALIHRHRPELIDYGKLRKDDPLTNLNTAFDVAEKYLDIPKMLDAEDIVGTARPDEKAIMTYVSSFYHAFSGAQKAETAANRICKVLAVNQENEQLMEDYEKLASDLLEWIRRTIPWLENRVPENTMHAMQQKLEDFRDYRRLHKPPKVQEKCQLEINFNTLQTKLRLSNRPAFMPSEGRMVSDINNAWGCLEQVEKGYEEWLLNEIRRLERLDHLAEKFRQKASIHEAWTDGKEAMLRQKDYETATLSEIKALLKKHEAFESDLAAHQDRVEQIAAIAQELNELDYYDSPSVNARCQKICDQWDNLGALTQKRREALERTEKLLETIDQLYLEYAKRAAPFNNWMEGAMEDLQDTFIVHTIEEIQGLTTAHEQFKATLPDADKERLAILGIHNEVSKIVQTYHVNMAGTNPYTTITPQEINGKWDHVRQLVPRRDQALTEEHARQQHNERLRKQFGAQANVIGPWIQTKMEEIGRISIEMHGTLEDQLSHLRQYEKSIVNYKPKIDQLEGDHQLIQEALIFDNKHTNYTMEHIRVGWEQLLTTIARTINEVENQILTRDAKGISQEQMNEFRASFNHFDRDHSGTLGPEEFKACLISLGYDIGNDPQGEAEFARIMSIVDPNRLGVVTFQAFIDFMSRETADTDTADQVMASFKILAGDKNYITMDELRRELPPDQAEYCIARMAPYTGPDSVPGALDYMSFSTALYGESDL
SW480 colon carcinoma cells lysate proteins (Homo sapiens, UniProt Q14152), sequence (Q14152 whole entry): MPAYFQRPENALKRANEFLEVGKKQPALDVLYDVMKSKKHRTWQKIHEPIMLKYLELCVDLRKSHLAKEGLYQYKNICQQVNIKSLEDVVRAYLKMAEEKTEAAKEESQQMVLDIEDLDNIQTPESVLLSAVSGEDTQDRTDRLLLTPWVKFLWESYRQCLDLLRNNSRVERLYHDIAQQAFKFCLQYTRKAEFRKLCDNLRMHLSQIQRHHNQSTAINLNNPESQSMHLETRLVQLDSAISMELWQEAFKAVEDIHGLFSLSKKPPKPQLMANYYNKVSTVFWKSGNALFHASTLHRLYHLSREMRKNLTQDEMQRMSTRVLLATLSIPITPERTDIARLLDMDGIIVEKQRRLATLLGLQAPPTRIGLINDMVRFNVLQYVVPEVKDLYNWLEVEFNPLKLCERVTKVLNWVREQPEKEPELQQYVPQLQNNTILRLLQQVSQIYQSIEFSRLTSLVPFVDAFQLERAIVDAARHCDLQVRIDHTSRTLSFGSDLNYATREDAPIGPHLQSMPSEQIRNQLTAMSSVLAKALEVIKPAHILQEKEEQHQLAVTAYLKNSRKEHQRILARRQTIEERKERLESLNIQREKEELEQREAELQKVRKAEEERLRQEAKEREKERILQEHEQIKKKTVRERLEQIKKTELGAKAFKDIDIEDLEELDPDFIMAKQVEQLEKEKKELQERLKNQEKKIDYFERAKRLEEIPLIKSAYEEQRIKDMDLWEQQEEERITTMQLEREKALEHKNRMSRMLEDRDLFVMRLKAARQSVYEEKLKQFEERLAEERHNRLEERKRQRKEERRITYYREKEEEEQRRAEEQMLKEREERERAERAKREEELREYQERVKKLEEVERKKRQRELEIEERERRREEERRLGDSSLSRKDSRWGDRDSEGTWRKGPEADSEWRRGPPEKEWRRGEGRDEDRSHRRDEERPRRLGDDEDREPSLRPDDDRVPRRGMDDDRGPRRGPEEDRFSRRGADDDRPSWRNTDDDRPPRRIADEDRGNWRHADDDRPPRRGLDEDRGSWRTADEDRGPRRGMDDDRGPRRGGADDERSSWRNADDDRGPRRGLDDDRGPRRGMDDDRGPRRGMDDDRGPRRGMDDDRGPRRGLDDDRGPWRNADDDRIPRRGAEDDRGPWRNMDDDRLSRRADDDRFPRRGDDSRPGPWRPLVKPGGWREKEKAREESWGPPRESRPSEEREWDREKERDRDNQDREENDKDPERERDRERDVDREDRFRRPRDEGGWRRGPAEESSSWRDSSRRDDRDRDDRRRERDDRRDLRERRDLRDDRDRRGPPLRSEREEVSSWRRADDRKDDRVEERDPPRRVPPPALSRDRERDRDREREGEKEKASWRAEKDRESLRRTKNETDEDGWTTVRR

SMILES: C[C@H](Oc1cc(-c2cnn(C3CCNCC3)c2)cnc1N)c1c(Cl)ccc(F)c1Cl [(5)-crizotinib]
- AvgP [1]: 0.2142
- SC.Exp. 1-1 [1]: 3
- SC.Exp. 1-2 [1]: 1
- SC.Exp. 2-1 [1]: 0
- SC.Exp. 2-2 [1]: 0
- Sum (SC.Exp.) [1]: 4
- AvgP [2]: 0.4488
- SC.Exp. 1-1 [2]: 7
- SC.Exp. 1-2 [2]: 5
- SC.Exp. 2-1 [2]: 0
- SC.Exp. 2-2 [2]: 0
- Sum (SC.Exp.) [2]: 12
- AvgP [3]: 0.4614
- SC.Exp. 1-1 [3]: 5
- SC.Exp. 1-2 [3]: 4
- SC.Exp. 2-1 [3]: 0
- SC.Exp. 2-2 [3]: 0
- Sum (SC.Exp.) [3]: 9
- AvgP [4]: 0.3773
- SC.Exp. 1-1 [4]: 4
- SC.Exp. 1-2 [4]: 5
- SC.Exp. 2-1 [4]: 0
- SC.Exp. 2-2 [4]: 0
- Sum (SC.Exp.) [4]: 9
- AvgP [5]: 0.3221
- SC.Exp. 1-1 [5]: 2
- SC.Exp. 1-2 [5]: 1
- SC.Exp. 2-1 [5]: 0
- SC.Exp. 2-2 [5]: 0
- Sum (SC.Exp.) [5]: 3
- AvgP [6]: 0.4372
- SC.Exp. 1-1 [6]: 5
- SC.Exp. 1-2 [6]: 4
- SC.Exp. 2-1 [6]: 0
- SC.Exp. 2-2 [6]: 0
- Sum (SC.Exp.) [6]: 9
- AvgP [7]: 0
- SC.Exp. 1-1 [7]: 9
- SC.Exp. 1-2 [7]: 7
- SC.Exp. 2-1 [7]: 7
- SC.Exp. 2-2 [7]: 6
- SC.Exp. Sum [7]: 29
- AvgP [8]: 0
- SC.Exp. 1-1 [8]: 0
- SC.Exp. 1-2 [8]: 1
- SC.Exp. 2-1 [8]: 0
- SC.Exp. 2-2 [8]: 0
- SC.Exp. Sum [8]: 1
